Results published in patent US12202805B2, “Process for preparing (5S)-{[2-(4-carboxyphenyl)ethyl] |2-(2-{|3-chloro-4'-(trifluoromethyl)biphenyl-4-yl]methoxy}phenyl)ethyl]aminol-5,6,7,8-tetrahydroquinoline-2-carboxylic acid and its crystalline forms for use as pharmaceutically active compound” (Bayer Aktiengesellschaft, priority 2021, dated 2025).

Key:
[1] = Protein binding via Transil assay, monkey plasma; assay type: in vitro ADME
Experimental: Protein Binding of Comparative Example 11 and Comparative Example 1 was Analyzed Via Transil Assay, Described Below.
The distribution of a test substance between Transil® (phosphatidylcholine lipid bilayers immobilized on silica beads) and plasma is a characteristic feature of any pharmaceutical compound and is dependent on its extent of binding to plasma proteins. By comparing the distribution between Transil® and buffer with the distribution between Transil® and plasma of any species of interest, the unbound fraction in the plasma of the respective animal species can be calculated in vitro. The respective plasma and buffer concentrations were determined via a radioactivity analysis. A detailed description of the method and its validation was published by Schuhmacher et al. (2).

[2] = system: chronic ovalbumin asthma mice model; assay: Chronic ovalbumin asthma mice model; settings: mouse, in vivo
sGC = assay: Efficacy under experimental conditions of oxidative stress (ODQ, L-NAME treatment); assay type: in vivo

What does the source list for O=C(O)c1ccc(CCN(CCc2ccccc2OCc2ccc(-c3ccc(C(F)(F)F)cc3)cc2Cl)[C@H]2CCCc3nc(C(=O)O)ccc32)cc1 [comparative example 11, (5S)-5-{[2-(4-carboxyphenyl)ethyl][2-(2-{[3-chloro-4′-(trifluoromethyl)[biphenyl]-4-yl]methoxy}phenyl)ethyl]amino}-5,6,7,8-tetrahydroquinoline-2-carboxylic acid]?
free fraction, times lower than comparative example 1 [1]: 2 times; effect on airway hyper-responsiveness and inflammation [2]: inhibitory effect on airway hyper-responsiveness and inflammation; efficacy under oxidative stress (sGC): enhanced
